Source: patent publication US20030165458A1, “Diagnosis, prevention, amelioration and/or treatment of disturbed immune function induced by disturbed lipid metabolism” (priority 2000, published 2003)

Columns and labels:
[1] = test system: Complement Lipid Pathway (CliP); assay: MBL in-vitro assay: MBL-dependent complement activation in human serum, hemolysis of heterologous chicken erythrocytes; type: biochemical; settings: results summarized in FIG. 9
Method: Experimental procedure: Chylomicrons were isolated from human serum by ultra centrifugation and purified by column chromatography. The purified chylomicron fractions were added to MBL-positive serum (from healthy human subjects) and MBL-negative serum (from MBL-deficient human subjects) and purified heterologous chicken erythrocytes were added. Complement activation was allowed to occur at 37° C. for 45 min. after which, the extend of hemolysis was evaluated by spectrophotometrical determination of hemoglobin levels in serum supernatants.
Using the MBL in-vitro assay, we identified, as an example, the components from olive oil and soy oil inducing Complement Lipid Pathway (CliP)-activation.

[2] = Standardized oral fat load with and without vitamin A in healthy volunteers; type: in vivo, human
Method: Experimental procedure: Fasting venous blood was drawn and Sudan Black staining as described in example 2 was carried out (left panel of FIG. 7). In the right panel of FIG. 7, venous blood of the same healthy volunteer was drawn 4 hours after administration of a standardized oral fat load. In the oral RP-fat loading test, cream is used as fat source; this is a 40% (w/v) fat emulsion with a P/S ratio of 0.06, which contains 0.001% (w/v) cholesterol and 2.8% (w/v) carbohydrates. After an overnight fast of 12 h, the subjects ingest the fresh cream, to which 120.000 U of aqueous RP (Retinyl palmitate =vitamin A) had been added 18 h before the test, in a dose of 50 g per m^2 body surface. After the ingestion of the fat load, subjects were only allowed to drink water or tea during the following 24 h. Peripheral blood samples were obtained in sodium EDTA (2 mg/ml) before (T=0), at hourly intervals up to 10 h and at 12 and 24 h after the meal. Tubes were protected against light by aluminum foil and centrifuged immediately for 15 min at 800×g at 4° C. […]
Experimental procedure: Standardized oral fat loading tests (oral RP fat loading test) were performed in volunteers and patients and plasma C3 levels were determined nephelometrically at regular intervals. Complement component 3 was measured by nephelometry (Dade Behring Nephelometry type II). […]

Compound: CCCCCCCCCCCCCCCC(=O)OC/C=C(C)/C=C/C=C(C)/C=C/C1=C(C)CCCC1(C)C [vitamin A, Retinyl palmitate]
- CLiP-induction [1]: strong CLiP-induction
- postprandial plasma C3 increase ([2]; 20 healthy volunteers, oral fat load with vs without vitamin A, after 2 h (FIG. 11A)): significantly higher
- plasma triglyceride increase 2 h after acute oral fat load ([2]; healthy volunteers, fat load with vs without vitamin A (FIG. 11B)): reduction
